In ChEMBL document CHEMBL1145143, “5'-Homoaristeromycin. Synthesis and antiviral activity against orthopox viruses” (Bioorg Med Chem Lett, 2005):
≈ marks a conversion by molar mass, not a printed value.

Legend:
[1] = test system: Vaccinia virus; experiment: Concentration required for 50% inhibition of adohcy hydrolase by the compound against vaccinia virus in vero 76 cells; assay type: functional, organism-based; conditions: Orthopoxvirus vaccinia
[2] = Concentration required for 50% inhibition of adohcy hydrolase by the compound against monkeypox virus in vero 76 cells; assay type: functional, cell-based
[3] = Cytotoxic concentration against cowpox, monkeypox and vaccinia virus in vero 76 cells; assay type: functional; conditions: Orthopoxvirus vaccinia
[4] = test system: Cowpox virus; experiment: Concentration required for 50% inhibition of adohcy hydrolase by the compound against cowpox virus in vero 76 cells; assay type: functional, organism-based

SMILES: Nc1ncnc2c1ncn2[C@@H]1C[C@H](CCO)[C@@H](O)[C@H]1O
- IC50 [1]: 1.2 µg/mL (≈ 4.3 µM)
- IC50 [2]: 0.12 µg/mL (≈ 0.43 µM)
- CC50 [3]: > 100 µg/mL
- IC50 [4]: 0.12 µg/mL (≈ 0.43 µM)
